Laboratory results from patent US10561666B2, “Amido compounds as RORγt modulators and uses thereof” (New York University, priority 2010, dated 2020).

Columns and labels:
[1] = system: mouse Th17 polarization; test: Mouse Th17 polarization assay (IL-17a producing cells); assay type: cell-based
Procedure: Effects of compound derivatives at various concentrations on mouse Th17 polarization. Percentage of DMSO treated IL-17a producing cells was set at 100. Naive mouse CD4 T cells (CD25^−, CD62L^+, and CD44^int-high) were sorted and cultured with CD3/CD28 stimulatory antibodies in the presence of TGFβ (0.1 ng/ml) and IL6 (20 ng/ml). Compounds were added on Day 1 and cells were analyzed on Day 4. For intracellular cytokine staining, cells were incubated for 5 h with phorbol ester (50 ng/ml; Sigma), ionomycin (500 ng/ml; Sigma) and GolgiStop (BD). When needed, surfaces were stained by incubation for 15 min on ice with PECy7-conjugated CD4 (BD Biosciences). The Cytofix/Cytoperm buffer set (BD) was used for intracellular staining. Cells were fixed and made permeable for 30 min on ice and were stained for 30 min on ice in permeabilization buffer with Alexa647-conjugated anti-IL17 (eBioscience) and PE-conjugated anti-IFNg (eBioscience). An LSR II (BD Biosciences) and FlowJo software (Tree Star) were used for flow cytometry. RORg IC50 value acquired from the S2 cell reporter assay is listed for comparison.
(§1) Naive CD4 T cells (CD25^−, CD62L^+, and CD44^int-high) were sorted and cultured with CD3/CD28 stimulatory antibodies in the presence of TGFβ (0.1 ng/ml) and IL6 (20 ng/ml). Compounds were added on Day 1 and cells were analyzed on Day 4. For intracellular cytokine staining, cells were incubated for 5 h with phorbol ester (50 ng/ml; Sigma), ionomycin (500 ng/ml; Sigma) and GolgiStop (BD). When needed, surfaces were stained by incubation for 15 min on ice with PECy7-conjugated CD4 (BD Biosciences). The Cytofix/Cytoperm buffer set (BD) or FoxP3 staining kit (eBioscience) were used for intracellular staining. Cells were fixed and made permeable for 30 min on ice and were stained for 30 min on ice in permeabilization buffer with Alexa647-conjugated anti-IL17 (eBioscience), PE-conjugated anti-IFNg (eBioscience), and/or PE-conjugated anti-FoxP3 (eBioscience). An LSR II (BD Biosciences) and FlowJo software (Tree Star) were used for flow cytometry.

[2] = molecular target: T1, recombinant human RORγ LBD (Homo sapiens, UniProt P51449); test: In vitro competition assay, fluorescence polarization with labeled 25-hydroxycholesterol; assay type: binding; details: various concentrations
T1 construct: recombinant human RORγ LBD was loaded with fluorescently-labeled 25-hydroxycholesterol
T1 sequence (P51449 269-508 limits assumed): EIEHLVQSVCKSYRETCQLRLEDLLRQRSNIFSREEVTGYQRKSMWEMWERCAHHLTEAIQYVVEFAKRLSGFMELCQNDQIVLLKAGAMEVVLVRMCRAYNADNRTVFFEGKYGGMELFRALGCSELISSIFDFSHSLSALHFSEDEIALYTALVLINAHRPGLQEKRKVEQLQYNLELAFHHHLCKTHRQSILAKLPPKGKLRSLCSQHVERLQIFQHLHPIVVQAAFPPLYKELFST
Text: The presence of increasing concentrations of NCGC00166547 was correlated with displacement of the fluorescently-labeled 25-hydroxycholesterol from the LBD.

[3] = system: Th1 differentiation; test: Mouse Th1 differentiation counter-screen (IFNγ production); assay type: cell-based; details: 20 μM, naive CD4 T cells, IL12 and IL2 (FIG. 4)
Procedure: as §1
For Th1 differentiation, IL12 (10 ng/ml) and IL2 (10 U) was added to naive CD4 T cell cultures instead of TGFβ and IL6.

[4] = system: human Th17 cell differentiation; test: Human Th17 cell differentiation of naive cord blood T cells; assay type: cell-based; details: IL2, IL23, IL1β, TGFβ, six days (FIG. 6B)
Procedure: Flow cytometry of IL-17a and IFN-γ production by cord blood naive CD4^+T cells (CD45RO^−CD45RA^+CD3^+CD4^+CD25^−HLA-DR^−)transduced with RORαd-IRES-GFP or RORγt-IRES-GFP on day 1 and analyzed on day 6. GFP expressing cells were gated for analysis. […] Flow cytometry of IL-17a and IFN-γ production by human naive cord blood T cells (CD45RO^−D45RA^+CD3^+CD4^+CD25^−HLA-DR^−), which were cultured for six days in presence of IL2, IL23 and IL1β, and with various concentrations of TGFβ (ng/ml). DMSO or N2 was added 16 hours after the cytokine addition.
The results depict flow cytometry of IL-17a and IFN-γ production by cord blood naive CD4^+ T cells (CD45RO^−CD45RA^+CD3^+CD4^+CD25^−HLA-DR^−)transduced with human RORαd-IRES-GFP or human RORγt-IRES-GFP on day 1 and analyzed on day 6. GFP expressing cells were gated for analysis. […] The results depict flow cytometry of IL-17a and IFN-γ production by human naive cord blood T cells (CD45RO^−D45RA^+CD3^+CD4^+CD25^−HLA-DR^−), which were cultured for six days in the presence of IL2, IL23 and ILβ, and with various concentrations of TGFβ (ng/mL). […] IL-17a-APC (eBio64CAP17 eBioscience) and IFN-γ-PECy7 (45.B3 eBioscience) were used for analysis.

[5] = system: Human memory (CD45RO+CD45RA−CD3+CD4+CCR6+CD161+) cells; test: Human memory Th17 cell maintenance (IL-17a / IFN-γ staining); assay type: cell-based; details: 3 uM, 6 days
Text: Intracellular staining for IFN-γ or IL-17a in memory CD4^+T cells from multiple donors, assessed on day 6. Each symbol (n=11 or 9, respectively) indicates a separate donor.

[6] = molecular target: RORγt (Mus musculus, UniProt P51450, T352K); test: RORγt S2 cell Gal4-luciferase reporter assay
RORγt, sequence (P51450 with tags, fused parts or gaps T352K): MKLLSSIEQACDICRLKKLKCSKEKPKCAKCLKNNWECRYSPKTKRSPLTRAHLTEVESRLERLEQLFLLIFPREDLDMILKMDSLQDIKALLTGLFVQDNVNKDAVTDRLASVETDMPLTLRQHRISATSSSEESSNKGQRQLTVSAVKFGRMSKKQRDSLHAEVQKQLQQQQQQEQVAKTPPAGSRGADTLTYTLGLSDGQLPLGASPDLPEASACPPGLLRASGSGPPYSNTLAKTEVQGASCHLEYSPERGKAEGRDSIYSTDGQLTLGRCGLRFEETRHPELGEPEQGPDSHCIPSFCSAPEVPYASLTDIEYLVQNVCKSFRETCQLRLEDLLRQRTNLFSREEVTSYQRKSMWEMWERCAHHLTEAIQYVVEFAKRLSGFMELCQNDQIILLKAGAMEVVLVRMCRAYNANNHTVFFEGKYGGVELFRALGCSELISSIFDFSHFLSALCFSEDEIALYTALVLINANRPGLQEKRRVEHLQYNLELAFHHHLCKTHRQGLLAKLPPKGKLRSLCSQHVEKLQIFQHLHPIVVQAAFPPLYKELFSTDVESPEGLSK

Compound: COc1cc(O)c(C(CC(=O)N2CCCC(C)C2)c2ccc3c(c2)OCO3)c(OC)c1 (stereo not drawn) [NCGC00166547]
- mouse Th17 cell differentiation, as measured by IL17a production ([1]; 20 μM, compared to DMSO treated cells, FACS (FIG. 3)): suppress mouse Th17 cell differentiation
- binding to human RORγt (displacement of fluorescently-labeled 25-hydroxycholesterol) [2]: directly bind to human RORγt
- Th1 differentiation, as measured by IFNγ production [3]: does not inhibit Th1 differentiation

Compound: COc1cc(O)c(C(CC(=O)N2C[C@H](C)C[C@H](C)C2)c2ccc3c(c2)OCO3)c(OC)c1 (stereo partly drawn) [NCGC00238427]
- concentration at which human Th17 cell differentiation is inhibited [4]: ≤ 1 µM
- IL-17a expression in human memory Th17 cells ([5]; multiple donors, IL-17a+IFN-γ+/−, p=0.02 (FIG. 7)): inhibits human Th17 cell memory cells expression of IL-17a
- IL-17a−IFN-γ+ memory CD4+ T cells, with versus without compound ([5]; two-tailed unpaired Student's t test (FIG. 7)): not significant

Compound: COc1cc(O)c(C(CC(=O)N2CC(C)NC(C)C2)c2ccc3c(c2)OCO3)c(OC)c1 (stereo not drawn) [Compound 42]
- IC50 ([1]; naive mouse CD4 T cells, TGFβ and IL6, compounds added Day 1, analyzed Day 4, IL-17a producing cells, read-out: Th 17 IC50): > 20 µM
- IC50 ([6]; IC50(μM), Drosophila S2 cells, Gal4-RORγt luciferase reporter, 20 hr): > 50 µM
- IC50 ([6]; S2 cell RORg IC50 μM, S2 cell reporter assay, listed for comparison): > 20 µM
